From PMC8203801 (Communications Biology, 2021)

Biological target: HSA (Homo sapiens, UniProt P02768)
Assay: Dansylsarcosine (DS) binding to prepared HSA, fluorescence titration
Conditions: range over samples
Procedure: Prepared HSA was diluted with phosphate-buffered saline (PBS) to a final concentration of 10 µmol/L, and 100 µL of this dilution was applied to a flat-bottomed, half area, polystyrene, black 96-well plate (Greiner Bio-One, Kremsmuenster, Austria). […] The resulting fluorescence was measured using FLUOstar OPTIMA microplate reader (BMG LABTECH, Ortenberg, Germany). Fluorescence excitation and emission detection were performed at 355 nm and 460 nm, respectively. Binding curves were fitted applying non-linear regression using GraphPad Prism Software (Version 5; GraphPad Software, San Diego, CA, USA) after subtraction of non-specific binding. Dissociation constants (Kd) were calculated at DS concentrations, where half-maximal fluorescence was reached.

Sequence of HSA (P02768 25-609): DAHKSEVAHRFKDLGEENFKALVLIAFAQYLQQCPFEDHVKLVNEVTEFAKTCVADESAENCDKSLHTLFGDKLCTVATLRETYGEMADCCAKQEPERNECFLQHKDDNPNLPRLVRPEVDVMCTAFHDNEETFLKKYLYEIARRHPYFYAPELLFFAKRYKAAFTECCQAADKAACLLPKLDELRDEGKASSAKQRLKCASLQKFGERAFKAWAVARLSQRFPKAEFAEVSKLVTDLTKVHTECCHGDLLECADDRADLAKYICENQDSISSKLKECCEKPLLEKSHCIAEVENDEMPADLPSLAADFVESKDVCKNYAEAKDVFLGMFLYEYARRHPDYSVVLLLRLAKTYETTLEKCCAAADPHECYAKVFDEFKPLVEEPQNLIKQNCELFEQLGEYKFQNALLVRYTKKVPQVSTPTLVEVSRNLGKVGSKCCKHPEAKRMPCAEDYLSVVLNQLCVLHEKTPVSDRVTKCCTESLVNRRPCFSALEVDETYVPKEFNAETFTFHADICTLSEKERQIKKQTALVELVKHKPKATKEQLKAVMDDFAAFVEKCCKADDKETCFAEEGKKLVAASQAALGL

For CN(C)c1cccc2c(S(=O)(=O)N(C)CC(=O)O)cccc12 [dansylsarcosine], which Kd (binding of dansylsarcosine to HSA of healthy donors) is on record?
The Kd was 12 to 18 µM.

What about the Kd (binding of dansylsarcosine to patients' HSA (chronic liver failure)) of the same compound?
Its Kd is 13 to 28 µM.
